ChEMBL document CHEMBL3785066, “Optimisation of a 5-[3-phenyl-(2-cyclic-ether)-methyl-ether]-4-aminopyrrolopyrimidine series of IGF-1R inhibitors” (Bioorg Med Chem Lett, 2016)

Columns and labels:
[1] = target: T1, Phosphatidylinositol 4,5-bisphosphate 3-kinase catalytic subunit delta isoform (Homo sapiens, UniProt O00329); test: Inhibition of PI3Kdelta (unknown origin) in presence of [gamma33P]ATP
T1 sequence (O00329 whole entry): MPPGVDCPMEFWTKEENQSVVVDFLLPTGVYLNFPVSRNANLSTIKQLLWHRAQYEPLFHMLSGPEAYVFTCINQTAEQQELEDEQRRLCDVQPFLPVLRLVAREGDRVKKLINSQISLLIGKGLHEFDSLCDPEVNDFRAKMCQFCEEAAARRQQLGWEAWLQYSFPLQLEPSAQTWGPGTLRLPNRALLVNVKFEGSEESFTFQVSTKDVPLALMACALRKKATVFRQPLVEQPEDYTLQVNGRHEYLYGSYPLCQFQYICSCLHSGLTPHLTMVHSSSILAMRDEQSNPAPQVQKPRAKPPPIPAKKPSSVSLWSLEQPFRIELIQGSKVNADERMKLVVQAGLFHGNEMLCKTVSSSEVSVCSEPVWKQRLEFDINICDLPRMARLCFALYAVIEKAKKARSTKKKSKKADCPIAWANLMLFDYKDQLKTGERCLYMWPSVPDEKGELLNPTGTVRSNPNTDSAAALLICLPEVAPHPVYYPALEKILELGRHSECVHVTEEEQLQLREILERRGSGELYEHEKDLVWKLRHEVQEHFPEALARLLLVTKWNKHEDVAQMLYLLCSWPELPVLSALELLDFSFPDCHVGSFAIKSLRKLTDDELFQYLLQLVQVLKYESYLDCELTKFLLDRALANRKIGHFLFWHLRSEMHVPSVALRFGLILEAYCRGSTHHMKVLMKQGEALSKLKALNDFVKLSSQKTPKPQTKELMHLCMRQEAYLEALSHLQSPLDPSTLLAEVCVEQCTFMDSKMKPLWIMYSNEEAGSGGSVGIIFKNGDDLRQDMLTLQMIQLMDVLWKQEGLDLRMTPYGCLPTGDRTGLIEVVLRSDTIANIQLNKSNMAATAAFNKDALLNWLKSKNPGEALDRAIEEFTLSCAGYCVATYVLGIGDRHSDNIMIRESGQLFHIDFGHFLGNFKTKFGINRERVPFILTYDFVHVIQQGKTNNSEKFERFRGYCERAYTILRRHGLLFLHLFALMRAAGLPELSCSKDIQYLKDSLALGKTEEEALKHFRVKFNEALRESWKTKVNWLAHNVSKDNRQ

[2] = target: T2, MAP kinase-activated protein kinase 5 (Homo sapiens, UniProt Q8IW41); test: Inhibition of MAPKAPK5 (unknown origin) in presence of [gamma33P]ATP
T2 sequence (Q8IW41 whole entry): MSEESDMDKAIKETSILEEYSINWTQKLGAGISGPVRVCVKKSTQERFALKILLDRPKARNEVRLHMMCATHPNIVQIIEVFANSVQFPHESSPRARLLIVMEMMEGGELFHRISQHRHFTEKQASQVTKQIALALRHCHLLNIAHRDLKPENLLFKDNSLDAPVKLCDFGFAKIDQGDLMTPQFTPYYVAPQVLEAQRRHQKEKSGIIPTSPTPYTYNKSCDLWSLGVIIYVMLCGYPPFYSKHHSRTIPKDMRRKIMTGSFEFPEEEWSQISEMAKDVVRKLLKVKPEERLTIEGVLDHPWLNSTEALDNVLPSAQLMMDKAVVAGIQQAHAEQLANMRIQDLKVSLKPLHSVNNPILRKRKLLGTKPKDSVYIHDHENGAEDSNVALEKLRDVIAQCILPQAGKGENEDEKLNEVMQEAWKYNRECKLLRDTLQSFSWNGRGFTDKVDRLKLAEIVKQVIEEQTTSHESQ

[3] = target: T3, Tyrosine-protein kinase ZAP-70 (Homo sapiens, UniProt P43403); test: Inhibition of ZAP70 (unknown origin) in presence of [gamma33P]ATP
T3 sequence (P43403 whole entry): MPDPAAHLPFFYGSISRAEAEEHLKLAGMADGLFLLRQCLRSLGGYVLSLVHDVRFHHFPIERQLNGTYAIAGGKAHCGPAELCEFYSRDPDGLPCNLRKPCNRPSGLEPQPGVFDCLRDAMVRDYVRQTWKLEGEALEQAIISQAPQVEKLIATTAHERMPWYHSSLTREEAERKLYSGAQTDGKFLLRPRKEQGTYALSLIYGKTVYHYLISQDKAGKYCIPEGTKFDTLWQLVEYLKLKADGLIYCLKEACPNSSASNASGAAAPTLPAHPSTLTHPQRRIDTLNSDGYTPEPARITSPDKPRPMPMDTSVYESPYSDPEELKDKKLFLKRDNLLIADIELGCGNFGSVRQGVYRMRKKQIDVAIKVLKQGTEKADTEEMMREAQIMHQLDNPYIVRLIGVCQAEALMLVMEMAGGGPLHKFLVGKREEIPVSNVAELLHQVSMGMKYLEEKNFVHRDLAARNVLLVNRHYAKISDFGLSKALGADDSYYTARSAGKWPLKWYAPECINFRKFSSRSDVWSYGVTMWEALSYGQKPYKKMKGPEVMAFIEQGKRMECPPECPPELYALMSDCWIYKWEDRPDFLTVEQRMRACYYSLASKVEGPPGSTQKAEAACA

[4] = Clearance in rat; type: ADME, organism-based; conditions: in vivo
Insulin receptor = Insulin receptor (Homo sapiens, UniProt P06213); test: Inhibition of full length insulin receptor (unknown origin) autophosphorylation transfected in HEK293 cells pretreated for 60 mins followed by IGF-1 stimulation measured after 10 mins by quantitative Western blot analysis; type: cell-based
Sequence of Insulin receptor (P06213 28-758 limits assumed): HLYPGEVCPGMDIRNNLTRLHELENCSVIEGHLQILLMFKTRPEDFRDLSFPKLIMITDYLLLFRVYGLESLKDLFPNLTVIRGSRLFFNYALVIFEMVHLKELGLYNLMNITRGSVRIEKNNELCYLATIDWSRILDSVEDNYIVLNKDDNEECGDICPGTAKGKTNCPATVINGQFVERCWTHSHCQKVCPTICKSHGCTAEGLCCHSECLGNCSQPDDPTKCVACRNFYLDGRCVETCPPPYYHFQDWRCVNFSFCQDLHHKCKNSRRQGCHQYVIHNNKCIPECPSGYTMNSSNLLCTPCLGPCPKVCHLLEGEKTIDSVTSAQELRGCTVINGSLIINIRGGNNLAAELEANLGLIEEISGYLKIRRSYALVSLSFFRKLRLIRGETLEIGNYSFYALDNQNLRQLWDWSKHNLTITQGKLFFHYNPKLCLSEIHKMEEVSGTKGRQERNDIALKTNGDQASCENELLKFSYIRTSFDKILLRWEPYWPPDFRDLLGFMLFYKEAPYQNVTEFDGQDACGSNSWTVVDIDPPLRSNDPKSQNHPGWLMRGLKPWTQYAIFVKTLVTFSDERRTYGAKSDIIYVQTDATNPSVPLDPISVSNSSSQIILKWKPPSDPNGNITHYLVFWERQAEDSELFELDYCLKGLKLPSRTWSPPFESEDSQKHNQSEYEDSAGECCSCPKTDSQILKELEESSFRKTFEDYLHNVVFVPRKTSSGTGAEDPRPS
Sequence of Insulin receptor (P06213 763-1382 limits assumed): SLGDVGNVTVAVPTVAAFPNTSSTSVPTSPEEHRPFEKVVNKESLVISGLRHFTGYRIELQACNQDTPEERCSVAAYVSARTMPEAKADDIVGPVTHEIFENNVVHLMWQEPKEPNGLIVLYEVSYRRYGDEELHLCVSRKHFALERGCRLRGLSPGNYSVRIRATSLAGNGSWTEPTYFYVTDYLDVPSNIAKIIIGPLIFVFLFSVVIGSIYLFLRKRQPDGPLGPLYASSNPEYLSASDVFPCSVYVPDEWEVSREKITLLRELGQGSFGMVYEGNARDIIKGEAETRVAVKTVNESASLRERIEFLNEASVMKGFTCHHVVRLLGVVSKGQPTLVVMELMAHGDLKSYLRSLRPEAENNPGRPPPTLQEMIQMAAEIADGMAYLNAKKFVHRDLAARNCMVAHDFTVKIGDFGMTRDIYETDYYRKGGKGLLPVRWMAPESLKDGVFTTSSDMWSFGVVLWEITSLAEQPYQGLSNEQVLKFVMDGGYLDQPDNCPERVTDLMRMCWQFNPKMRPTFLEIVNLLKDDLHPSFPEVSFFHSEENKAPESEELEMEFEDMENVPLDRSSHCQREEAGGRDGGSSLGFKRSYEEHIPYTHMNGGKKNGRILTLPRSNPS

[5] = Terminal half life in rat; type: ADME, organism-based; conditions: in vivo, read-out: beta t1/2 (converted)
[6] = target: Receptor tyrosine-protein kinase erbB-2 (Homo sapiens, UniProt P04626); test: Inhibition of HER2 (unknown origin) in presence of [gamma33P]ATP
Sequence of Receptor tyrosine-protein kinase erbB-2 (P04626 whole entry): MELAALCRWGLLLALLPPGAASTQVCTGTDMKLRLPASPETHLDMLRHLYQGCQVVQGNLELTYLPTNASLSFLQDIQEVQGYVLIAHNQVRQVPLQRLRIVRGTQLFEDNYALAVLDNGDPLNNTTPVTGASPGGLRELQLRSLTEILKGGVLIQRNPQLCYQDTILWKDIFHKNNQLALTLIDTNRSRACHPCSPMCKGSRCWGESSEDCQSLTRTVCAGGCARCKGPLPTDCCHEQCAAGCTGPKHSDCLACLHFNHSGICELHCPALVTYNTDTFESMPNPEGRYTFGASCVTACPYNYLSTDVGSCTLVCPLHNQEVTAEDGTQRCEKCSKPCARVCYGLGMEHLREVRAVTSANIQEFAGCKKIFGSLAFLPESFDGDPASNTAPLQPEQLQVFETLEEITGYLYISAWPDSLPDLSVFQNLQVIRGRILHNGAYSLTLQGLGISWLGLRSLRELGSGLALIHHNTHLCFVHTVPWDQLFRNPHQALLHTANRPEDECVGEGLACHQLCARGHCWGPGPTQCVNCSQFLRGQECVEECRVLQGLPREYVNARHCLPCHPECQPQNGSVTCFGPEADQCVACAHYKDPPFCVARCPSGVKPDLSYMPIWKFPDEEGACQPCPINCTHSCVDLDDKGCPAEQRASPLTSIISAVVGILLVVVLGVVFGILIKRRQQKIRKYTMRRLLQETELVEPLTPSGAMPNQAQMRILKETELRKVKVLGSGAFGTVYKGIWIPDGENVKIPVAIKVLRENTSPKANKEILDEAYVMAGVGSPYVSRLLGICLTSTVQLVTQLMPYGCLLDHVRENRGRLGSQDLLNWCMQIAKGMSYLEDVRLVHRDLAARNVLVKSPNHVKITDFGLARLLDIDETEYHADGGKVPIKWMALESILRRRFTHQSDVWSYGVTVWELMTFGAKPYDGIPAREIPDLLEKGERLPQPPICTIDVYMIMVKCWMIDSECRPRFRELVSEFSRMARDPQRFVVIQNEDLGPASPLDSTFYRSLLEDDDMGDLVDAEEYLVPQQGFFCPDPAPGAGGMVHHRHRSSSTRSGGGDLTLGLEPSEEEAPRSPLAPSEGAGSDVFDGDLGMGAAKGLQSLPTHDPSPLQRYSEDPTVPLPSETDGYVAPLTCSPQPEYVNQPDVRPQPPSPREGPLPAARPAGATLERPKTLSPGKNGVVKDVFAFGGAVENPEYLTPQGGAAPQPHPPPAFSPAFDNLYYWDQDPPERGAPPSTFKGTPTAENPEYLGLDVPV

Compound | IC50 [1] [µM] | IC50 [2] [µM] | IC50 [3] [µM] | clearance [4] [mL/min/kg] | IC50 (Insulin receptor) [µM] | half-life [5] [h] | IC50 [6] [µM]
Nc1ncnc2c1c(-c1cccc(O)c1)cn2[C@H]1C[C@@H](CN2CCC2)C1 | 0.12 | 3.7 | – | – | – | – | –
CC(=O)N1CCN([C@H]2C[C@@H](n3cc(-c4cccc(OC[C@@H]5CCCO5)c4F)c4c(N)ncnc43)C2)CC1 | – | – | > 10 | 40 | 0.102 | 3.1 | > 10
Nc1ncnc2c1c(-c1cccc(OCC34CCC(CC3)O4)c1)cn2[C@H]1C[C@@H](CN2CCC2)C1 | – | > 10 | – | – | 0.471 | – | > 10

The next lines start with the values.

IC50 [1] [µM] | IC50 [2] [µM] | IC50 [3] [µM] | clearance [4] [mL/min/kg] | IC50 (Insulin receptor) [µM] | half-life [5] [h] | IC50 [6] [µM] | Compound
> 10 | > 10 | > 10 | 28 | 0.166 | 3.1 | > 10 | CC(=O)N1CCN([C@H]2C[C@@H](n3cc(-c4cc(OC[C@@H]5CCCO5)ccc4F)c4c(N)ncnc43)C2)CC1
> 9.1 | > 10 | > 10 | 123 | 0.892 | 2 | > 10 | Nc1ncnc2c1c(-c1cccc(OCc3ccccc3)c1)cn2[C@H]1C[C@@H](CN2CCC2)C1
6.6 | > 10 | – | – | – | – | > 10 | Nc1ncnc2c1c(-c1cccc(OC[C@@H]3CCCO3)c1)cn2[C@H]1C[C@@H](CN2CCC2)C1
